The values that follow come from patent US20180221371A1, “TREATMENT FOR THE FETUS WITH CONGENITAL HEART DISEASE” (CHILDREN'S NATIONAL MEDICAL CENTER, priority 2015, published 2018).

Data set [1] deals with oligodendrocytes (CNP positive cells). As to the kind of experiment: Oligodendrocyte density (CNP positive cells) in white matter, mouse model of chronic hypoxia. In kind it is in vivo, mice. To be noted: Hx-BH4 vs Hx; 10.5% FiO2 postnatal day 3 to 11; n=3-6 each. From the text: (§1) FIG. 3. Correspondence between human and rodent gestation periods. Regarding WM development, postnatal days 3-11 in mice correspond to the 3rd trimester of human pregnancy. The murine model was used by the inventors to investigate the effects of hypoxia and treatment of hypoxia by BH4. A mouse model of chronic hypoxia during a period that corresponds to the 3rd trimester in human white matter development is described by […], et al ^47 and by Raymond, et al. ^48, both of which are incorporated by reference. Three groups of mice: Normoxic controls (Nx), Hypoxic (Hx), Hypoxic treated with BH4 (Hx-BH4). Hx and Hx-BH4 mice were kept at 10.5% FiO2 from postnatal day 3 to 11-a period of WM development equivalent to the 3rd trimester in humans as illustrated by FIG. 3. BH4 brain levels were quantified and compared between Nx (n=11) and Hx (n=12). Densities of cells expressing CNP, a marker of oligodendrocytes which are cells responsible for myelination, and Caspase3, an apoptosis marker, were compared between all groups (n=3-6 each). Expression of myelin basic protean, a myelination marker, was quantified using Western Blot (n=7-12 each).

In the next data set the test system is WM integrity and damage. To be noted: in vivo; cited from earlier work.
The subject of another data set is Myelin Basic Protein. As to the kind of experiment: Expression of myelin basic protein (Western blot, immunohistochemistry), mouse model of chronic hypoxia. Format: in vivo, mice.
Excerpt: as §1
Background: A western blot detects proteins with antibodies after separation by electrophoresis.

For data set [2] the following is noted: cited from earlier work.
Data set [3] deals with apoptotic cells (Caspase3 positive). As to the kind of experiment: Apoptotic cell density (Caspase3 positive) in white matter, mouse model of chronic hypoxia. Format: in vivo, mice.
Excerpt: as §1

The conditions of data set [4]: in vivo; cited from earlier work.

Entries after “also recorded” stand apart in the source; their conditions may differ.

Turning to `C[C@H](O)[C@H](O)[C@H]1CNc2nc(N)[nH]c(=O)c2N1` [BH4, Tetrahydrobiopterin], the “Effect of BH4 treatment on hypoxia-induced increase of oligodendrocyte density” value in data set [1] is “not limited by BH4 therapy; also recorded: did not limit this effect”. Also, the “WM integrity and damage in children with phenylketonuria treated early” value in the data set with WM integrity and damage is “Improvements of WM integrity and damage”. For the same molecule, in the data set on Myelin Basic Protein (Hx-BH4 vs Hx, p=0.006, 10.5% FiO2 postnatal day 3 to 11, n=7-12 each), the “Effect of BH4 treatment on hypoxia-decreased expression of myelin basic protein” value is given as “mitigated by BH4 therapy; also recorded: increased with BH4 treatment”. The “Expression of myelin basic protein, Hx-BH4 compared with normoxic controls” value in the data set with Myelin Basic Protein (Hx-BH4 vs Nx) is “no significant difference between normoxic controls (Nx) and hypoxic mice treated with BH4 (Hx-BH4)”. Moreover, the “Safety and tolerability in long-term follow-up studies” value in data set [2] (humans, wide range of doses) is “safe and well tolerated”. Moreover, in data set [2] (in vivo), the Teratological effects result is “no teratological effects have been documented”. Also, in data set [2] (recent trials), the “Maternal BH4 treatment in pregnant females” value was “efficient and safe”. For the same molecule, in data set [3] (Hx-BH4 vs Hx, p=0.01, 10.5% FiO2 postnatal day 3 to 11, n=3-6 each), the “Effect of BH4 treatment on hypoxia-increased WM apoptosis (apoptotic cell density)” value is “mitigate this effect; also recorded: decreased with BH4 treatment”. In addition, the “Apoptotic cell density, Hx-BH4 compared with normoxic controls” value in data set [3] (Hx-BH4 vs Nx) was “no difference in apoptotic cell density between Nx and Hx-BH4”. Besides, in data set [4], the “Placental crossing and fetal tissue distribution” value is “crosses the placenta and distributes throughout fetal tissues, including the brain”.
